In assay [1] the test system is Mycobacterium tuberculosis. In words: Non-covalent inhibition of DprE1 in bedaquiline-resistant Mycobacterium tuberculosis measured after 7 days by microplate Alamar blue assay. The conditions noted are these: time 7.0 day.
Assay [2] relates to Mycobacterium tuberculosis. In words: Non-covalent inhibition of DprE1 in PBTZ169-resistant Mycobacterium tuberculosis measured after 7 days by microplate Alamar blue assay. As to conditions: time 7.0 day. Background: The colour change of resazurin is a common sign of viable cells or microbes.

Converted amounts (≈) assume the structure as drawn.

For the molecule `CCOC(=O)NC(=O)c1ccsc1NC(=O)c1ccc(C(=O)N2CCCCC2)c(F)c1`, the MIC in assay [1] stood at 0.054 µg/mL (≈ 0.121 µM); in assay [2], 0.062 µg/mL (≈ 0.139 µM). `COC(=O)NC(=O)c1ccsc1NC(=O)c1ccc(C(=O)N2CCCCC2)cc1` came in with an MIC in assay [2] of 0.48 µg/mL (≈ 1.16 µM). The same measure, in the same setting: in the case of `CCOC(=O)NC(=O)c1ccsc1NC(=O)c1ccc(C(=O)N2CCCCC2)cc1` it was 0.14 µg/mL (≈ 0.326 µM).

The values are drawn from ChEMBL document CHEMBL4831479, “Discovery of Novel Thiophene-arylamide Derivatives as DprE1 Inhibitors with Potent Antimycobacterial Activities” (J Med Chem, 2021).
